This is an account of results in the NIST ThermoML archive (doi:10.1021/je200872n).

Numbers after ± are expanded uncertainties.

Data set [1] is described as follows: mn = molality of the nth substance listed, in mol/kg. Particulars: 298.15 K, 101 kPa, Liquid; for mass density: Vibrating tube method; for viscosity: Capillary tube (Ostwald / Ubbelohde) method.
For data set [2] the following is noted: 298.15 K, Liquid.
The nature of data set [3]: refractive index (Na D-line) (dimensionless). The conditions noted are these: 298.15 K; 101.33 kPa; Liquid; Standard Abbe refractometry.

`CCCCn1cc[n+](C)c1.[Br-]` [1-butyl-3-methylimidazolium bromide] + CN(C)C=O: the values for the mass density in data set [1] (m1 = 0.1012), in data set [1] (m1 = 0.1527) and in data set [1] (m1 = 0.197) were 951.01 ± 0.46 kg/m3, 954.4 ± 0.46 kg/m3 and 957.2 ± 0.46 kg/m3, respectively.
On to `CCC[n+]1ccn(C)c1.[Br-]` [1-methyl-3-propylimidazolium bromide] + CN(C)C=O, for which the mass density in data set [1] (m1 = 0.03) was found to be 946.19 ± 0.46 kg/m3; in data set [1] (m1 = 0.0789) it was 949.63 ± 0.46 kg/m3; in data set [1] (m1 = 0.122) it was 952.52 ± 0.46 kg/m3.
`CCCCCn1cc[n+](C)c1.[Br-]` [1-pentyl-3-methylimidazolium bromide] + CN(C)C=O: the values for the mass density in data set [1] (m1 = 0.026), in data set [1] (m1 = 0.0508) and in data set [1] (m1 = 0.0747) were 947.47 ± 0.46 kg/m3, 949.26 ± 0.46 kg/m3 and 950.79 ± 0.46 kg/m3, respectively.
Take `Oc1ccccc1C=Nc1ccccc1N=Cc1ccccc1O` [2,2'-[1,2-phenylenebis(nitrilomethylidyne)]bis-phenol] + CN(C)C=O: the viscosity in data set [1] (m1 = 0.01) was determined as 0.802 ± 0.008 mPa·s; in data set [1] (m1 = 0.0302) it was 0.818 ± 0.008 mPa·s; in data set [1] (m1 = 0.0505), 0.833 ± 0.008 mPa·s; in data set [1] (m1 = 0.0698), 0.847 ± 0.008 mPa·s; in data set [1] (m1 = 0.0851), 0.859 ± 0.008 mPa·s; in data set [1] (m1 = 0.1098), 0.878 ± 0.008 mPa·s. Moreover, the viscosity in data set [1] (m1 = 0.1268) was determined as 0.89 ± 0.008 mPa·s; in data set [1] (m1 = 0.1507), 0.905 ± 0.008 mPa·s; in data set [1] (m1 = 0.1705), 0.919 ± 0.008 mPa·s. The mass density amounted to 946.01 ± 0.46 kg/m3 in data set [1] (m1 = 0.0295); 947.47 ± 0.46 kg/m3 in data set [1] (m1 = 0.051); 948.75 ± 0.46 kg/m3 in data set [1] (m1 = 0.0697); 950.08 ± 0.46 kg/m3 in data set [1] (m1 = 0.0894); 951.51 ± 0.46 kg/m3 in data set [1] (m1 = 0.1106); 952.82 ± 0.46 kg/m3 in data set [1] (m1 = 0.1299). The mass density came out at 953.94 ± 0.46 kg/m3 in data set [1] (m1 = 0.1465), 955.51 ± 0.46 kg/m3 in data set [1] (m1 = 0.1701) and 956.83 ± 0.46 kg/m3 in data set [1] (m1 = 0.1898).
Turning to `CCCCCCn1cc[n+](C)c1.[Br-]` [3-hexyl-1-methyl-1H-imidazolium bromide] + CN(C)C=O, the mass density is on record as 945.76 ± 0.46 kg/m3 in data set [1] (m1 = 0.0245), 948.9 ± 0.46 kg/m3 in data set [1] (m1 = 0.0738) and 951.72 ± 0.46 kg/m3 in data set [1] (m1 = 0.1205).
As for `CN(C)C=O` [dimethylformamide], the mass density in data set [2] (101 kPa, Vibrating tube method) turned out to be 944 ± 0.46 kg/m3. Besides, the viscosity in data set [2] (101.33 kPa, Capillary tube (Ostwald / Ubbelohde) method) worked out at 0.805 ± 0.008 mPa·s. Further, the refractive index in data set [3] was 1.4281 ± 0.0004.
